Activity calls are given as the source filed them.
How the values were obtained:
[1] = P. falciparum Dd2 growth inhibitors, dose response, SYBR Green, cherry-picked samples (AID 1159567); format: functional, cell-based
[2] = toxicity to human hepatoma HepG2 cells – cell-based, cherry-picked samples, cytotoxicity control, dose response (AID 1159577); format: functional
Albumin = Albumin (Bos taurus, UniProt P02769); assay: Counterscreen for inhibitors of T-cell receptor (TCR)-CD3 interaction: Fluorescence-based biochemical high throughput dose response assay to identify inhibitors of T-cell receptor (TCR)-CD3 interaction using a TAMRA-labeled BSA probe.; format: functional
Chain of Albumin (P02769 whole entry): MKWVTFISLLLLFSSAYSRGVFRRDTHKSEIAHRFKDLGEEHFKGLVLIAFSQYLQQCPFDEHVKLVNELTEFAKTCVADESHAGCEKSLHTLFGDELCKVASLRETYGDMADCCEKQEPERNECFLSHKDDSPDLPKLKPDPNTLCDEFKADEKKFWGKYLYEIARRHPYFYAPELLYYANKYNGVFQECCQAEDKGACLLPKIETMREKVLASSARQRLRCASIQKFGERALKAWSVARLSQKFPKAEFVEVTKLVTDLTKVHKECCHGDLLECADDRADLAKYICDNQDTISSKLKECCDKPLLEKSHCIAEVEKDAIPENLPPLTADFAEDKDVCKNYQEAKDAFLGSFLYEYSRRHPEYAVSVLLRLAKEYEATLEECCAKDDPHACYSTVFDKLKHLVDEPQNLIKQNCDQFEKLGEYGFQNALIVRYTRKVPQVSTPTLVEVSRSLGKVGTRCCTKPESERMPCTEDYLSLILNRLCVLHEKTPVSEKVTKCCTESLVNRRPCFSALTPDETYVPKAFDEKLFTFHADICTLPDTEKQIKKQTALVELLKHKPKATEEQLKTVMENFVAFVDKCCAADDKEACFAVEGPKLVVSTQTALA

[3] = viability loss in human Jurkat cells – cell-based, luminescence, cytotoxicity control for P. falciparum gametocyte viability project, dose response (AID 1117277); format: functional;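 note: potency reflects loss of cellular ATP meaning fewer viable cells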
[4] = viability inhibitors of stage V gametocytes – luminescence, dose response (AID 1117278); format: functional, cell-based;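 note: gametocytes exposed to compound for 24 hours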
[5] = toxicity toward HepG2 liver cells – cell-based, plate reader, cherry-pick, antagonist series, cytotoxicity control, dose response (AID 743416); format: functional
[6] = alpha-synuclein stem-loop luciferase translation blockers – H4 neuroglioma cells, luminescence, confirmation (AID 1988); format: functional, cell-based
[7] = A549 cell cytotoxicity, dose response, cytotoxicity control, plate reader, cherry-pick, antagonist series (AID 743412); format: functional, cell-based
[8] = Luminescence Cell-Based Dose Response HTS to Identify Inhibitors of 5'UTR Stem-Loop Driven Prion Protein mRNA Translation in H4 Neuroglioblastoma Cells. [Related pubchem assays: 1827 (Project Summary), 1813 (Primary HTS)]; format: functional
[9] = blockade of melanocortin 4 receptor signaling – cell-based, plate reader, cherry pick, counter-screen for LGR2 antagonist project, dose response (AID 743444); format: functional;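 note: transfected HEK 293 cells stimulated with alpha-MSH peptide; potency of inhibitors of the alpha-MSH evoked signal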
[10] = blockers of bursicon-stimulated LGR2 cAMP reporter – cell-based, HEK293, CRE-luciferase reporter, cherry pick, set 2, dose response (AID 743343); format: functional;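 note: transfected cells were stimulated with diluted bursicon conditioned medium after compound addition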
[11] = luciferase reporter signal suppression in cells – H4 neuroglioma cells, luminescence, dose response (AID 1990); format: functional, cell-based
[12] = viability loss in HEK293 cells – cell-based, plate reader, cherry-picked samples, cytotoxicity control, dose response (AID 743446); format: functional
[13] = molecular target: T1, Oxysterols receptor LXR-beta (Homo sapiens, UniProt P55055); format: functional, cell-based;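 note: agonist activity at LXR measured by a cell-based luminescence readout across a dose range, run as a counterscreen for daf-12 agonists; HEK293 cells with Gal4-LXR fusion and GAL4-driven luciferase reporter; potency for activation of Gal4-LXR reporter so compounds are agonists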
T1 sequence (P55055 whole entry): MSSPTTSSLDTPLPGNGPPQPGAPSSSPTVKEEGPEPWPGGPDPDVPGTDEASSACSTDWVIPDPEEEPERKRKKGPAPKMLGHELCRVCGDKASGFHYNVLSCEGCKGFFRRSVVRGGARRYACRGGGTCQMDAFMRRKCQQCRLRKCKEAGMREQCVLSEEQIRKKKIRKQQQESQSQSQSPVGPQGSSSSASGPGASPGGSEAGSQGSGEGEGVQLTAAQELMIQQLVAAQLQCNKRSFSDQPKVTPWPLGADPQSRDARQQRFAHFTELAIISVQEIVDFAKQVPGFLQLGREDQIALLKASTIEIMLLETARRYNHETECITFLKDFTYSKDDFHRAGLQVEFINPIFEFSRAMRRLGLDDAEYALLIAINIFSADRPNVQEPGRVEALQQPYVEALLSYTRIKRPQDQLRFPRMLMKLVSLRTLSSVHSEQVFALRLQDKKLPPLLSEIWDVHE

cells [14] = format: functional, cell-based
[15] = molecular target: T2, Trace amine-associated receptor 1 (Homo sapiens, UniProt Q96RJ0); assay: Counterscreen for agonists of the human trace amine associated receptor 1 (hTAAR1): Fluorescence-based cell-based high throughput dose response assay to identify hTAAR1 agonist that also desensitize TAAR1 receptor response.; format: functional
T2 sequence (Q96RJ0 whole entry): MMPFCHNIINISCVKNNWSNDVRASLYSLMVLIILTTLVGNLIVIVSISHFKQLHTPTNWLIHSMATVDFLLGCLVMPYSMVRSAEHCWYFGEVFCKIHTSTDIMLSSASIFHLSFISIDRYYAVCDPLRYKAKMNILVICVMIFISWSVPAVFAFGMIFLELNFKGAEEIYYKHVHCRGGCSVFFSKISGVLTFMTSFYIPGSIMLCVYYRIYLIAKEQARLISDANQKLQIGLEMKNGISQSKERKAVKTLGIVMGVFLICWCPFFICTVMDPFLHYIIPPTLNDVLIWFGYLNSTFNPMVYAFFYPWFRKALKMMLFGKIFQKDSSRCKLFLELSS

cells [16] = format: functional, cell-based; remark: listed apart in the source
[17] = molecular target: T2, Trace amine-associated receptor 1; assay: Fluorescence-based cell-based high throughput dose response assay to identify agonists of the human trace amine associated receptor 1 (TAAR1).; format: functional
[18] = molecular target: T3, Endoribonuclease toxin MazF (Escherichia coli K-12, UniProt P0AE70); assay: activation of MazEF endoribonuclease cleavage – biochemical, fluorescence, single-stranded RNA substrate, uHTS hits, dose response (AID 588481); format: functional
T3 sequence (P0AE70 whole entry): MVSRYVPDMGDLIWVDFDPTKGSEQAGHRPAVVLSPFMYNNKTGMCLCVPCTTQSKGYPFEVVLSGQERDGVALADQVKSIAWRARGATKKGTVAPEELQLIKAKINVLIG

[19] = molecular target: T3, Endoribonuclease toxin MazF; assay: substrate-only fluorescence increase artefacts – biochemical, single-stranded RNase substrate, counter-screen for MazEF activator project, dose response (AID 588502); format: functional
[20] = loss of viability in HepG2 cells – cell-based, CellTiter-Glo, cherry-picked, cytotoxicity control for Shn3 inhibitor project, dose response (AID 624134); format: functional

COc1cccc(S(=O)(=O)Nc2ccc3c(c2)[C@@H]2C[C@H](CC(=O)NCc4ccc(Cl)cc4)O[C@@H](CO)[C@@H]2O3)c1
AC50 [1]: 5.66 µM (active) | AC50 [2]: > 39 µM (inactive)

Cc1cccc(C(=O)NCC(=O)NNC(=O)c2ccccc2O)c1
IC50 (Albumin): > 94 µM (inactive)

Fc1ccc(Nc2nc(-c3ccncc3)cs2)cc1
IC50 [3]: > 83.2 µM (inactive) | IC50 [4]: > 109 µM (inactive)

COc1ccc2cc3cc(C(=O)NC4CC4)sc3nc2c1
AC50 [5]: > 52 µM (inactive) | EC50 [6]: 5.41 µM (active) | AC50 [7]: 29.1 µM (active) | EC50 [8]: 7.47 µM (active) | AC50 [9]: 4.27 µM (active) | AC50 [10]: 3.86 µM (active) | EC50 [11]: 6.66 µM (inconclusive) | AC50 [12]: > 52 µM (inactive)

CCOC(=O)CSc1nc2cc3c(cc2cc1C)OCO3
IC50 [3]: > 83.3 µM (inactive) | IC50 [4]: > 109 µM (inactive)

COc1ccc(-c2nc(N)n(C(=O)c3ccccc3)n2)cc1
IC50 [3]: > 83.3 µM (inactive) | IC50 [4]: > 109 µM (inactive)

Cc1ccc(OCc2ccc(Br)cc2)c([N+](=O)[O-])n1
EC50 [13]: > 67.5 µM (inactive)

COCC1CCN(Cc2nc(-c3cccs3)no2)C1 (configuration not stated)
EC50 [13]: > 67.5 µM (inactive)

COc1ccccc1CCn1cnc(-c2ccc(Cl)cc2)c1CC(C)C
AC50 [5]: 31.2 µM (active) | AC50 [7]: 23.2 µM (active) | AC50 [9]: 17.7 µM (active) | AC50 [10]: 19 µM (active) | AC50 [12]: > 52 µM (inactive) | EC50 (cells [14]): > 30 µM (inactive) | IC50 [15]: 6.55 µM (active) | IC50 (cells [16]): 14.2 µM (inactive) | EC50 [17]: 2.37 µM (active)

O=C1/C(=C/Nc2ccccc2O)c2ccccc2C(=O)N1c1nccs1
IC50 (Albumin): > 94.1 µM (inactive) | EC50 [18]: > 99 µM (inactive) | EC50 [19]: > 99 µM (inactive) | AC50 [20]: > 70 µM (inactive)

From ChEMBL document CHEMBL1201862, “PubChem BioAssay data set” (2004)
